Results: patent US20250255867A1 (Kadmon Corporation, LLC, priority 2022, published 2025)

Tested on: patients with cGVHD
Experiment: Example 1: pulmonary function (percent predicted FEV1, FVC, DLco, TLC, RV) change from baseline
Format: in vivo, human
Protocol: Change From Baseline in Percent Predicted Forced Expiratory Volume in 1 Second (FEV1) at Each Specified Time Points. FEV1 was the volume of air exhaled from the lungs in the first second of a forced expiration as measured by spirometer. Baseline value was defined as valid and last non-missing value obtained within 28 days prior to participant receiving first study medication. EOT visit was performed within 3 days after the participant's last dose of study drug. […] Analysis was performed on mITT population. Here, ‘number analyzed’=participants with available data for each specified category. Here, ‘0’ in the number analyzed field signifies that none of the participants were available for the analysis at the specified time points.
Change From Baseline in Percent Predicted Forced Vital Capacity (FVC) at Each Specified Time Points. FVC was the total amount of air (in liters) exhaled from the lungs during the lung function test measured by spirometer which assessed the change in lung function related to the disease status. Baseline value was defined as valid and last non-missing value obtained within 28 days prior to participant receiving first study medication. EOT visit was performed within 3 days after the participant's last dose of study drug. […] Analysis was performed on mITT population. Here, ‘number analyzed’=participants with available data for each specified category. Here, ‘0’ in the number analyzed field signifies that none of the participants were available for the analysis at the specified time points.
Change From Baseline in Percent Predicted Hemoglobin (HGB) Corrected Diffusing Capacity of Lung for Carbon Monoxide (DLco) at Each Specified Time Points. DLco is a measurement of the ability of the lungs to transfer gases from the air to the blood. Change from baseline in diffusing capacity of the lung for carbon monoxide (percent predicted hemoglobin level corrected) was reported for this measure. Baseline value was defined as valid and last non-missing value obtained within 28 days prior to participant receiving first study medication. EOT visit was performed within 3 days after the participant's last dose of study drug. […] Analysis was performed on mITT population. Here, ‘number analyzed’=participants with available data for each specified category. Here, ‘0’ in the number analyzed field signifies that none of the participants were available for the analysis at the specified time points.
Change From Baseline in Percent Predicted Total Lung Capacity (TLC) at Each Specified Time Points. TLC is the volume of air in the lungs upon the maximum effort of inspiration. Baseline value was defined as valid and last non-missing value obtained within 28 days prior to participant receiving first study medication. EOT visit was performed within 3 days after the participant's last dose of study drug. […] Analysis was performed on mITT population. Here, ‘number analyzed’=participants with available data for each specified category.

CC(C)NC(=O)COc1cccc(-c2nc(Nc3ccc4[nH]ncc4c3)c3ccccc3n2)c1 [Belumosudil, 2-{3-[4-(1H-indazol-5-ylamino)-2-quinazolinyl]phenoxy}-N-(propan-2-yl) acetamide]
Change From Baseline in Percent Predicted Residual Volume (RV), Mean (Standard Deviation) (Cohort 1: 200 mg QD, Cycle 3, Day 1, n=14): 0.2 (22.2) percent predicted RV
Change From Baseline in Percent Predicted Residual Volume (RV), Mean (Standard Deviation) (Cohort 1: 200 mg QD, Cycle 5, Day 1, n=13): 5.2 (24.5) percent predicted RV
Change From Baseline in Percent Predicted Residual Volume (RV), Mean (Standard Deviation) (Cohort 1: 200 mg QD, Cycle 7, Day 1, n=11): 4.9 (29.1) percent predicted RV
Change From Baseline in Percent Predicted Residual Volume (RV), Mean (Standard Deviation) (Cohort 1: 200 mg QD, Cycle 9, Day 1, n=9): 6.4 (27.4) percent predicted RV
Change From Baseline in Percent Predicted Residual Volume (RV), Mean (Standard Deviation) (Cohort 1: 200 mg QD, Cycle 11, Day 1, n=7): 22.1 (29.6) percent predicted RV
Change From Baseline in Percent Predicted Residual Volume (RV), Mean (Standard Deviation) (Cohort 1: 200 mg QD, Cycle 12, Day 1, n=1): −28.0 (—) percent predicted RV
Change From Baseline in Percent Predicted Residual Volume (RV), Mean (Standard Deviation) (Cohort 1: 200 mg QD, Cycle 13, Day 1, n=7): 20.3 (19.9) percent predicted RV
Change From Baseline in Percent Predicted Residual Volume (RV), Mean (Standard Deviation) (Cohort 1: 200 mg QD, Cycle 14, Day 1, n=1): 78.0 (—) percent predicted RV
Change From Baseline in Percent Predicted Residual Volume (RV), Mean (Standard Deviation) (Cohort 1: 200 mg QD, Cycle 15, Day 1, n=6): 20.3 (27.4) percent predicted RV
Change From Baseline in Percent Predicted Residual Volume (RV), Mean (Standard Deviation) (Cohort 1: 200 mg QD, Cycle 16, Day 1, n=1): 0.0 (—) percent predicted RV
Change From Baseline in Percent Predicted Residual Volume (RV), Mean (Standard Deviation) (Cohort 1: 200 mg QD, Cycle 17, Day 1, n=5): 13.6 (27.8) percent predicted RV
Change From Baseline in Percent Predicted Residual Volume (RV), Mean (Standard Deviation) (Cohort 1: 200 mg QD, Cycle 19, Day 1, n=5): 5.4 (28.7) percent predicted RV
Change From Baseline in Percent Predicted Residual Volume (RV), Mean (Standard Deviation) (Cohort 1: 200 mg QD, Cycle 21, Day 1, n=3): 8.3 (10.0) percent predicted RV
Change From Baseline in Percent Predicted Residual Volume (RV), Mean (Standard Deviation) (Cohort 1: 200 mg QD, Cycle 23, Day 1, n=3): 0.3 (5.1) percent predicted RV
Change From Baseline in Percent Predicted Residual Volume (RV), Mean (Standard Deviation) (Cohort 1: 200 mg QD, Cycle 24, Day 1, n=1): −4.0 (—) percent predicted RV
Change From Baseline in Percent Predicted Residual Volume (RV), Mean (Standard Deviation) (Cohort 1: 200 mg QD, Cycle 25, Day 1, n=2): 1.0 (9.9) percent predicted RV
Change From Baseline in Percent Predicted Residual Volume (RV), Mean (Standard Deviation) (Cohort 1: 200 mg QD, Cycle 26, Day 1, n=1): −3.0 (—) percent predicted RV
Change From Baseline in Percent Predicted Residual Volume (RV), Mean (Standard Deviation) (Cohort 1: 200 mg QD, Cycle 27, Day 1, n=2): 19.5 (41.7) percent predicted RV
Change From Baseline in Percent Predicted Residual Volume (RV), Mean (Standard Deviation) (Cohort 1: 200 mg QD, Cycle 29, Day 1, n=2): −13.0 (42.4) percent predicted RV
Change From Baseline in Percent Predicted Residual Volume (RV), Mean (Standard Deviation) (Cohort 1: 200 mg QD, Cycle 37, Day 1, n=1): −54.0 (—) percent predicted RV
Change From Baseline in Percent Predicted Residual Volume (RV), Mean (Standard Deviation) (Cohort 1: 200 mg QD, Cycle 38, Day 1, n=1): 8.0 (—) percent predicted RV
Change From Baseline in Percent Predicted Residual Volume (RV), Mean (Standard Deviation) (Cohort 1: 200 mg QD, Cycle 39, Day 1, n=2): 43.0 (89.1) percent predicted RV
Change From Baseline in Percent Predicted Residual Volume (RV), Mean (Standard Deviation) (Cohort 1: 200 mg QD, Cycle 40, Day 1, n=1): −1.0 (—) percent predicted RV
Change From Baseline in Percent Predicted Residual Volume (RV), Mean (Standard Deviation) (Cohort 1: 200 mg QD, Cycle 41, Day 1, n=1): 80.0 (—) percent predicted RV
Change From Baseline in Percent Predicted Residual Volume (RV), Mean (Standard Deviation) (Cohort 1: 200 mg QD, Cycle 43, Day 1, n=1): 58.0 (—) percent predicted RV
Change From Baseline in Percent Predicted Residual Volume (RV), Mean (Standard Deviation) (Cohort 1: 200 mg QD, Cycle 47, Day 1, n=1): 42.0 (—) percent predicted RV
Change From Baseline in Percent Predicted Residual Volume (RV), Mean (Standard Deviation) (Cohort 1: 200 mg QD, Cycle 48, Day 1, n=1): −50.0 (—) percent predicted RV
Change From Baseline in Percent Predicted Residual Volume (RV), Mean (Standard Deviation) (Cohort 1: 200 mg QD, Cycle 49, Day 1, n=1): −14.0 (—) percent predicted RV
Change From Baseline in Percent Predicted Residual Volume (RV), Mean (Standard Deviation) (Cohort 1: 200 mg QD, Cycle 51, Day 1, n=1): 22.0 (—) percent predicted RV
Change From Baseline in Percent Predicted Residual Volume (RV), Mean (Standard Deviation) (Cohort 1: 200 mg QD, Cycle 52, Day 1, n=1): −4.0 (—) percent predicted RV
Change From Baseline in Percent Predicted Residual Volume (RV), Mean (Standard Deviation) (Cohort 1: 200 mg QD, Cycle 53, Day 1, n=1): 22.0 (—) percent predicted RV
Change From Baseline in Percent Predicted Residual Volume (RV), Mean (Standard Deviation) (Cohort 1: 200 mg QD, Cycle 54, Day 1, n=1): 4.0 (—) percent predicted RV
Change From Baseline in Percent Predicted Residual Volume (RV), Mean (Standard Deviation) (Cohort 1: 200 mg QD, Cycle 55, Day 1, n=1): 53.0 (—) percent predicted RV
Change From Baseline in Percent Predicted Residual Volume (RV), Mean (Standard Deviation) (Cohort 1: 200 mg QD, Cycle 56, Day 1, n=1): 17.0 (—) percent predicted RV
Change From Baseline in Percent Predicted Residual Volume (RV), Mean (Standard Deviation) (Cohort 1: 200 mg QD, Cycle 57, Day 1, n=1): 18.0 (—) percent predicted RV
Change From Baseline in Percent Predicted Residual Volume (RV), Mean (Standard Deviation) (Cohort 1: 200 mg QD, Cycle 58, Day 1, n=1): 4.0 (—) percent predicted RV
Change From Baseline in Percent Predicted Residual Volume (RV), Mean (Standard Deviation) (Cohort 1: 200 mg QD, Cycle 60, Day 1, n=1): −20.0 (—) percent predicted RV
Change From Baseline in Percent Predicted Residual Volume (RV), Mean (Standard Deviation) (Cohort 1: 200 mg QD, Cycle 61, Day 1, n=1): −18.0 (—) percent predicted RV
Change From Baseline in Percent Predicted Residual Volume (RV), Mean (Standard Deviation) (Cohort 1: 200 mg QD, Cycle 62, Day 1, n=1): −8.0 (—) percent predicted RV
Change From Baseline in Percent Predicted Residual Volume (RV), Mean (Standard Deviation) (Cohort 1: 200 mg QD, Cycle 63, Day 1, n=1): 6.0 (—) percent predicted RV
Change From Baseline in Percent Predicted Residual Volume (RV), Mean (Standard Deviation) (Cohort 1: 200 mg QD, Cycle 67, Day 1, n=1): 2.0 (—) percent predicted RV
Change From Baseline in Percent Predicted Residual Volume (RV), Mean (Standard Deviation) (Cohort 1: 200 mg QD, EOT, n=11): 6.3 (24.3) percent predicted RV
Change From Baseline in Percent Predicted Residual Volume (RV), Mean (Standard Deviation) (Cohort 2: 200 mg BID, Cycle 3, Day 1, n=12): −4.6 (18.8) percent predicted RV
Change From Baseline in Percent Predicted Residual Volume (RV), Mean (Standard Deviation) (Cohort 2: 200 mg BID, Cycle 5, Day 1, n=11): −11.5 (26.9) percent predicted RV
Change From Baseline in Percent Predicted Residual Volume (RV), Mean (Standard Deviation) (Cohort 2: 200 mg BID, Cycle 7, Day 1, n=8): −9.9 (17.1) percent predicted RV
Change From Baseline in Percent Predicted Residual Volume (RV), Mean (Standard Deviation) (Cohort 2: 200 mg BID, Cycle 8, Day 1, n=1): −28.0 (—) percent predicted RV
Change From Baseline in Percent Predicted Residual Volume (RV), Mean (Standard Deviation) (Cohort 2: 200 mg BID, Cycle 9, Day 1, n=8): −19.9 (24.3) percent predicted RV
Change From Baseline in Percent Predicted Residual Volume (RV), Mean (Standard Deviation) (Cohort 2: 200 mg BID, Cycle 10, Day 1, n=2): −47.5 (0.7) percent predicted RV
Change From Baseline in Percent Predicted Residual Volume (RV), Mean (Standard Deviation) (Cohort 2: 200 mg BID, Cycle 11, Day 1, n=6): −10.5 (28.3) percent predicted RV
Change From Baseline in Percent Predicted Residual Volume (RV), Mean (Standard Deviation) (Cohort 2: 200 mg BID, Cycle 12, Day 1, n=1): −5.0 (—) percent predicted RV
